According to US20080085915A1, “COMPOUNDS AND METHODS FOR THE TREATMENT OF GASTROINTESTINAL AND CENTRAL NERVOUS SYSTEM DISORDERS” (priority 2006, published 2008):

Columns and labels:
5-HT4 receptor = biological target: T1, 5-HT4 receptor (Cavia porcellus, UniProt O70528); assay: 5-HT4 Receptor Binding - Guinea Pig Striatum; details: radioligand [3H]GR113808 (0.70 nM)
T1 construct: from tissue; host or cells: guinea pig striatum
Source text: The 5-HT4 receptor is known to be the major receptor subtype involved in the prokinetic activity of cisapride in the gut.

[1] = biological target: T2, human IKr (hERG K+ channels) (Homo sapiens, UniProt Q12809); assay: Inhibition of IKr activity, whole cell patch-clamp in HEK-293 cells expressing hERG K+ channels; type: cell-based; details: data normalized to % control tail IKr
T2 construct: expressed in transfected cells; host or cells: HEK-293
Protocol: The rapidly activating delayed rectifier potassium (K+) current in humans (human IKr) is a K+ channel that is encoded by the human-ether-a-go-go-related gene (hERG). Cisapride is known to produce QT interval prolongations via a blockade of IKr, and it was therefore of interest to determine whether compounds of the invention have important inhibitory effects on human IKr. The test system was mammalian HEK-293 cells expressing the hERG K+ channels, in which the potassium current was measured by whole cell patch-clamp technique.

[2] = between July 1993 and December 1999; cited from earlier work
[3] = in vivo; cited from earlier work

T2 sequence (Q12809 whole entry): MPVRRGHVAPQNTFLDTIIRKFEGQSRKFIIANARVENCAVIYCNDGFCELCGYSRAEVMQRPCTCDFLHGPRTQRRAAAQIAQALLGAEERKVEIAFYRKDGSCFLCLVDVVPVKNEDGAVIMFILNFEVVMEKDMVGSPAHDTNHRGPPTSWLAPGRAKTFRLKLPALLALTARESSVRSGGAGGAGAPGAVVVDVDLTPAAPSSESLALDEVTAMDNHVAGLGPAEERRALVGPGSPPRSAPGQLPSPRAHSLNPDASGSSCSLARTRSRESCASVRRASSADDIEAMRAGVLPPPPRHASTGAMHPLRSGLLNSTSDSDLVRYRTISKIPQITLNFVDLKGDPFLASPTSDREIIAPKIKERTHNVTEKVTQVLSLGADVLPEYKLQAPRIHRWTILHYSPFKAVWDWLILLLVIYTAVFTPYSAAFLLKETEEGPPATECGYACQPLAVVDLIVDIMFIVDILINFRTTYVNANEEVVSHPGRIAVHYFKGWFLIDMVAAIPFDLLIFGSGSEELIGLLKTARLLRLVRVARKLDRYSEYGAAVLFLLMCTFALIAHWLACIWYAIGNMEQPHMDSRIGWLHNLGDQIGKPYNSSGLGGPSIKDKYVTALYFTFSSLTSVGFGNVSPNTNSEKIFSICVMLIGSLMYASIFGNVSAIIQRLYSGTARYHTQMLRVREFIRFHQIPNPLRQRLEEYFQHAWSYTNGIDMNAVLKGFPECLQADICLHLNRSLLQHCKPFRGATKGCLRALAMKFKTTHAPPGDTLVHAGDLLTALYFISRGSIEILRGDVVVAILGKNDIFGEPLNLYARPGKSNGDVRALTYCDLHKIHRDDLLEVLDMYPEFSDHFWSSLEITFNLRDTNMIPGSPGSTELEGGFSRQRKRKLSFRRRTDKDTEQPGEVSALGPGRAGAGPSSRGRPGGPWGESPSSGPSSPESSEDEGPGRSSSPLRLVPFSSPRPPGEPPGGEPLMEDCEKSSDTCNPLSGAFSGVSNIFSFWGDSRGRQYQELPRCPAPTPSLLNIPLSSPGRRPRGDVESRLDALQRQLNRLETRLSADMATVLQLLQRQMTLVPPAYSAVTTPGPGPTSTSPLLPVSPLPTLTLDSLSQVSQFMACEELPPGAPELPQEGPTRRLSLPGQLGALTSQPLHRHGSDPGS
T1 sequence (O70528 whole entry): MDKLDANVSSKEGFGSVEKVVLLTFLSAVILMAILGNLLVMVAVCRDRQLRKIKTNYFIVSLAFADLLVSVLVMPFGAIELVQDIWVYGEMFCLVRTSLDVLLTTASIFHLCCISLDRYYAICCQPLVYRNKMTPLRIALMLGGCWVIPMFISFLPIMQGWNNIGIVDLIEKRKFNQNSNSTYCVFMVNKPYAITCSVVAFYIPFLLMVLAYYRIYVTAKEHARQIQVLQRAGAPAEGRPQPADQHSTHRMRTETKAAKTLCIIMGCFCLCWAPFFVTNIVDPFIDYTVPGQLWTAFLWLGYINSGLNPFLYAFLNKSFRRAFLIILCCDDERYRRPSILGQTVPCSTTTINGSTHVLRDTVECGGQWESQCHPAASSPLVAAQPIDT

Row | Compound | Ki (5-HT4 receptor) [nM] | IC50 [1] [nM] | other results
1 | COc1cc(N)c(Cl)cc1C(=O)N[C@@H]1CCN(CC(=O)Nc2ccc(CC(=O)O)cc2)C[C@@H]1OC [Compound 45, 2-(4-(2-((3S,4R)-4-(4-amino-5-chloro-2-methoxybenzamido)-3-methoxypiperidin-1-yl)acetamido)phenyl)acetic acid] | > 500 | > 25000 | 
2 | COc1cc(N)c(Cl)cc1C(=O)N[C@@H]1CCN(CCNC(=O)c2ccc(C(=O)OC3CCNCC3)cc2)C[C@@H]1OC [Compound 34, piperidin-4-yl 4-(2-((3S,4R)-4-(4-amino-5-chloro-2-methoxybenzamido)-3-methoxypiperidin-1-yl)ethylcarbamoyl)benzoate] | < 50 |  | 
3 | CCOC(=O)Cc1ccc(NC(=O)CN2CC[C@@H](NC(=O)c3cc(Cl)c(N)cc3OC)[C@@H](OC)C2)cc1 [Compound 46, ethyl 2-(4-(2-((3S,4R)-4-(4-amino-5-chloro-2-methoxybenzamido)-3-methoxypiperidin-1-yl)acetamido)phenyl)acetate] | < 50 |  | 
4 | COc1cc(N)c(Cl)cc1C(=O)N[C@@H]1CCN(CC(=O)Nc2ccc(CC(=O)OC3CN4CCC3CC4)cc2)C[C@@H]1OC (stereo partly drawn) [Compound 49, quinuclidin-3-yl 2-(4-(2-((3S,4R)-4-(4-amino-5-chloro-2-methoxybenzamido)-3-methoxypiperidin-1-yl)acetamido)phenyl)acetate] | < 50 |  | 
5 | COc1cc(N)c(Cl)cc1C(=O)N[C@@H]1CCN(CCNC(=O)c2ccc(C(=O)O)cc2)C[C@@H]1OC [Compound 33, 4-(2-((3S,4R)-4-(4-amino-5-chloro-2-methoxybenzamido)-3-methoxypiperidin-1-yl)ethylcarbamoyl)benzoic acid] | > 500 | > 25000 | 
6 | COc1cc(N)c(Cl)cc1C(=O)N[C@@H]1CCN(CCCc2ccc(C(=O)OCCN3CCOCC3)cc2)C[C@@H]1OC [Compound 67, 2-morpholinoethyl 4-(3-((3S,4R)-4-(4-amino-5-chloro-2-methoxybenzamido)-3-methoxypiperidin-1-yl)propyl)benzoate] | < 50 |  | 
7 | COc1cc(N)c(Cl)cc1C(=O)N[C@@H]1CCN(CC(=O)Nc2ccc(CC(=O)OC3CCN(C)CC3)cc2)C[C@@H]1OC [Compound 47, 1-methylpiperidin-4-yl 2-(4-(2-((3S,4R)-4-(4-amino-5-chloro-2-methoxybenzamido)-3-methoxypiperidin-1-yl)acetamido)phenyl)acetate] | < 50 | > 25000 | 
8 | COc1cc(N)c(Cl)cc1C(=O)N[C@@H]1CCN(CC(=O)Nc2ccc(C(=O)OCCO)cc2)C[C@@H]1OC [Compound 93, 2-hydroxyethyl 4-(2-((3S,4R)-4-(4-amino-5-chloro-2-methoxybenzamido)-3-methoxypiperidin-1-yl)acetamido)benzoate] | < 50 | > 25000 | 
9 | COc1cc(N)c(Cl)cc1C(=O)N[C@@H]1CCN(CCN(C)Cc2ccc(C(=O)OCCN3CCCC3)cc2)C[C@@H]1OC [Compound 10, 2-(pyrrolidin-1-yl)ethyl 4-(((2-((3S,4R)-4-(4-amino-5-chloro-2-methoxybenzamido)-3-methoxypiperidin-1-yl)ethyl)(methyl)amino)methyl)benzoate] | < 50 | > 25000 | 
10 | COc1cc(N)c(Cl)cc1C(=O)N[C@@H]1CCN(CCNCc2ccc(C(=O)OC3CCNCC3)cc2)C[C@@H]1OC [Compound 25, piperidin-4-yl 4-((2-((3S,4R)-4-(4-amino-5-chloro-2-methoxybenzamido)-3-methoxypiperidin-1-yl)ethylamino)methyl)benzoate] | < 50 | > 25000 | 
11 | COc1cc(N)c(Cl)cc1C(=O)N[C@@H]1CCN(CCN(C)Cc2ccc(C(=O)OC3CCN(C)CC3)cc2)C[C@@H]1OC [Compound 11, 1-methylpiperidin-4-yl 4-(((2-((3S,4R)-4-(4-amino-5-chloro-2-methoxybenzamido)-3-methoxypiperidin-1-yl)ethyl)(methyl)amino)methyl)benzoate] | < 50 |  | 
12 | COc1cc(N)c(Cl)cc1C(=O)NC1CCN(CCCOc2ccc(F)cc2)CC1OC (stereo not shown) [cisapride] |  |  | deaths reported [2]: 80; serious cardiac arrhythmias reportedly associated [2]: at least 341; part of dose metabolized by oxidative N-dealkylation or aromatic hydroxylation [3]: More than 90%
13 | COc1cc(N)c(Cl)cc1C(=O)N[C@@H]1CCN(CCCc2ccc(C(=O)OCCN3CCCC3)cc2)C[C@@H]1OC [Compound 68, 2-(pyrrolidin-1-yl)ethyl 4-(3-((3S,4R)-4-(4-amino-5-chloro-2-methoxybenzamido)-3-methoxypiperidin-1-yl)propyl)benzoate] | < 50 |  | 

Second part, led by results:

Row | Ki (5-HT4 receptor) [nM] | Compound | IC50 [1] [nM] | other results
14 | < 50 | COc1cc(N)c(Cl)cc1C(=O)N[C@@H]1CCN(CC(=O)Nc2ccc(CC(=O)OCCCO)cc2)C[C@@H]1OC [Compound 48, 3-hydroxypropyl 2-(4-(2-((3S,4R)-4-(4-amino-5-chloro-2-methoxybenzamido)-3-methoxypiperidin-1-yl)acetamido)phenyl)acetate] | 10000 to 25000 | 
15 | < 50 | COc1cc(N)c(Cl)cc1C(=O)N[C@@H]1CCN(CC(=O)Nc2ccc(C(=O)OCCN3CCNCC3)cc2)C[C@@H]1OC [Compound 95, 2-(piperazin-1-yl)ethyl 4-(2-((3S,4R)-4-(4-amino-5-chloro-2-methoxybenzamido)-3-methoxypiperidin-1-yl)acetamido)benzoate] |  | 
16 | > 500 | COc1cc(N)c(Cl)cc1C(=O)N[C@@H]1CCN(CCNCc2ccc(C(=O)O)cc2)C[C@@H]1OC [Compound 23, 4-((2-((3S,4R)-4-(4-amino-5-chloro-2-methoxybenzamido)-3-methoxypiperidin-1-yl)ethylamino)methyl)benzoic acid] |  | 
17 | > 500 | COc1cc(N)c(Cl)cc1C(=O)N[C@@H]1CCN(CCCc2ccc(C(=O)O)cc2)C[C@@H]1OC [Compound 66, 4-(3-((3S,4R)-4-(4-amino-5-chloro-2-methoxybenzamido)-3-methoxypiperidin-1-yl)propyl)benzoic acid] | > 25000 | 
18 | < 50 | COc1cc(N)c(Cl)cc1C(=O)N[C@@H]1CCN(CCCc2ccc(C(=O)OC3CCN(C)CC3)cc2)C[C@@H]1OC [Compound 69, 1-methylpiperidin-4-yl 4-(3-((3S,4R)-4-(4-amino-5-chloro-2-methoxybenzamido)-3-methoxypiperidin-1-yl)propyl)benzoate] |  | 
19 | < 50 | COc1cc(N)c(Cl)cc1C(=O)N[C@@H]1CCN(CC(=O)Nc2ccc(C(=O)OCC(N)=O)cc2)C[C@@H]1OC [Compound 94, 2-amino-2-oxoethyl 4-(2-((3S,4R)-4-(4-amino-5-chloro-2-methoxybenzamido)-3-methoxypiperidin-1-yl)acetamido)benzoate] | 5000 to 10000 | 
20 | < 50 | COc1cc(N)c(Cl)cc1C(=O)N[C@@H]1CCN(CC(=O)Nc2ccc(OC(C)=O)cc2)C[C@@H]1OC [Compound 60, 4-(2-((3S,4R)-4-(4-amino-5-chloro-2-methoxybenzamido)-3-methoxypiperidin-1-yl)acetamido)phenyl acetate] |  | 
21 | < 50 | COc1cc(N)c(Cl)cc1C(=O)N[C@@H]1CCN(CC(=O)Nc2ccc(O)cc2)C[C@@H]1OC [Compound 59, 4-amino-5-chloro-N-((3S,4R)-1-(2-(4-hydroxyphenylamino)-2-oxoethyl)-3-methoxypiperidin-4-yl)-2-methoxybenzamide] |  | 
22 | 50 to 500 | COc1cc(N)c(Cl)cc1C(=O)N[C@@H]1CCN(CCN(C)Cc2ccc(C(=O)OCCN3CCOCC3)cc2)C[C@@H]1OC [Compound 12, 2-morpholinoethyl 4-(((2-((3S,4R)-4-(4-amino-5-chloro-2-methoxybenzamido)-3-methoxypiperidin-1-yl)ethyl)(methyl)amino)methyl)benzoate] |  | 
23 | 50 to 500 | COc1cc(N)c(Cl)cc1C(=O)N[C@@H]1CCN(CCNCc2ccc(C(=O)OCCCO)cc2)C[C@@H]1OC [Compound 24, 3-hydroxypropyl 4-((2-((3S,4R)-4-(4-amino-5-chloro-2-methoxybenzamido)-3-methoxypiperidin-1-yl)ethylamino)methyl)benzoate] |  | 
